The values that follow are results of earlier work, collected in patent publication US4632934A, “Imidazole derivatives and pharmaceutical use thereof” (Kissei Pharmaceutical Co., Ltd., priority 1978, dated 1986).

The series deals with thromboxane synthetase. Particulars: prior art literature.
With `CCCCCCCCCn1ccnc1` [1-nonylimidazole], the “inhibitory effect on thromboxane synthetase (in words)” value (from here on “inhibitory effect”) is listed as “strong inhibitory effect”.

`c1c[nH]cn1` [imidazole]: the “inhibitory effect” value is “very weak inhibitory effect”.

With `CC(C)c1ccccc1-n1ccnc1` [1-(2-isopropylphenyl)imidazole], the “inhibitory effect” value was “strong inhibitory effect”.

As to `CCCCCCCCCCn1ccnc1` [1-decylimidazole], the “inhibitory effect” value is “strong inhibitory effect”.

As for `c1ccc(Cn2ccnc2)cc1` [1-benzylimidazole], the “inhibitory effect” value is “strong inhibitory effect”.
